In brackets after ≈: the same amount, converted by molar mass. Read-outs that look alike come from different tables or passages of the source.
Key:
S. aureus ATCC25923 = assay: Antimicrobial broth micro-dilution assay (MIC); type: cell-based; settings: Staphylococcus aureus, read-out: Minimum inhibitory concentration (MIC)
Source text: (§1) 3. Bioactivity and Toxicity Assays
(§2) Antimicrobial assay: According to the standard broth micro-dilution assays, following the Standards of European Committee on Antimicrobial Susceptibility Testing (v 7.3.1: Method for the determination of broth dilution minimum inhibitory concentrations of antifungal agents for yeasts) for Candida spp., and according to the standard broth micro-dilution assays, recommended by the National Committee for Clinical Laboratory Standards (M07-A8) for bacteria MIC values of compounds were determinate. Compounds were dissolved in DMSO at a concentration of 50 mg/mL, and the highest tested concentration was 250 µg/mL. The inoculums were 1x10^5 colony forming units (CFU/mL), for Candida species, and bacteria species, 5x10^5 colony forming units (CFU/mL). The MIC value was recorded as the lowest concentration that inhibited the growth after 24 h at 37 °C. Additionally, 5 µL from each well of 96 well plates was transferred to Luria Agar (LA) plates for bacteria and Sabouraud agar (SAB) plates for Candida spp. and incubated for an additional 24 h at 37 °C, to determine MBC (Minimum bactericidal/fungicidal concentration) values. In Table 1. Are labeled compounds showing a difference in MBC and previously determined MIC values. […]

E. coli NCTC9001 = assay: Antimicrobial broth micro-dilution assay (MIC); type: cell-based; settings: Escherichia coli, read-out: Minimum inhibitory concentration (MIC)
Source text: as §1, §2

P. aeruginosa ATCC27853 = assay: Antimicrobial broth micro-dilution assay (MIC); type: cell-based; settings: Pseudomonas aeruginosa, read-out: Minimum inhibitory concentration (MIC)
Source text: as §1, §2

S. aureus MRSA = assay: Antimicrobial broth micro-dilution assay (MIC); type: cell-based; settings: Staphylococcus aureus, read-out: Minimum inhibitory concentration (MIC)
Source text: as §1, §2

B. subtilis ATCC6633 = assay: Antimicrobial broth micro-dilution assay (MIC); type: cell-based; settings: Bacillus subtilis, read-out: Minimum inhibitory concentration (MIC)
Source text: as §1, §2

C. albicans ATCC10231 = assay: Antimicrobial broth micro-dilution assay (MIC); type: cell-based; settings: Candida albicans, read-out: Minimum inhibitory concentration (MIC)
Source text: as §1, §2

[1] = tested on: two S. aureus strains and B. subtilis ATCC6633; assay: Antimicrobial assay, Gram-positive bacteria; type: cell-based; settings: from MIC values
Source text: as §1, §2

[2] = tested on: human lung fibroblast cell line (MRC-5); assay: Cytotoxicity evaluation by MTT assay; type: cell-based
Source text: as §1
Antimicrobial assay: According to the standard broth micro-dilution assays, following the Standards of European Committee on Antimicrobial Susceptibility Testing (v 7.3.1: Method for the determination of broth dilution minimum inhibitory concentrations of antifungal agents for yeasts) for Candida spp., and according to the standard broth micro-dilution assays, recommended by the National Committee for Clinical Laboratory Standards (M07-A8) for bacteria MIC values of compounds were determinate. Compounds were dissolved in DMSO at a concentration of 50 mg/mL, and the highest tested concentration was 250 µg/mL. The inoculums were 1x10^5 colony forming units (CFU/mL), for Candida species, and bacteria species, 5x10^5 colony forming units (CFU/mL). The MIC value was recorded as the lowest concentration that inhibited the growth after 24 h at 37 °C. Additionally, 5 µL from each well of 96 well plates was transferred to Luria Agar (LA) plates for bacteria and Sabouraud agar (SAB) plates for Candida spp. and incubated for an additional 24 h at 37 °C, to determine MBC (Minimum bactericidal/fungicidal concentration) values. In Table 1. Are labeled compounds showing a difference in MBC and previously determined MIC values.
Cytotoxicity evaluation: Antiproliferative activity was tested by MTT assay (3-(4,5-dimethylthiazol-2-yl)-2,5-diphenyltetrazoliumbromide) on a human lung fibroblast cell line (MRC-5; ATCC collection). Pre-grown (24 h) cell monolayers (1x10^4 cells per well) in RPMI 1640 medium supplemented with 100 μg/mL streptomycin, 100 U/mL penicillin, and 10% (v/v) FBS (all from Sigma, Munich, Germany) containing the tested compounds at concentrations ranging from 5 to 20 μg/mL were incubated in a humidified atmosphere of 95% air and 5% CO2 at 37 °C for 48 h. The cell viability (extent of MTT reduction) was measured spectrophotometrically at 540 nm using the Epoch 2000 multiplate reader, and the cell survival was expressed as a percentage of the control (untreated cells). Cytotoxicity was expressed as the concentration of the compound inhibiting cell growth by 50% (IC 50). […]

Caenorhabditis elegans = assay: In vivo toxicity C. elegans survival assay; settings: C. elegans model
Procedure: 3. Bioactivity and Toxicity Assays […]
Compounds were dissolved in DMSO at a concentration of 50 mg/mL, and the highest tested concentration was 250 µg/mL. […]
In vivo toxicity C. elegans assay: The C. elegans survival assay was carried out as described previously with some modifications. 8 In brief, synchronized worms (L4 stage) were suspended in a medium containing 95% M9 buffer (3.0 g of KH2PO4, 6.0 g of Na2HPO4, 5.0 g of NaCl, and 1 mL of 1 M MgSO4 × 7H2O in 1 L of water), 5% LB (Luria-Bertani) broth (Oxoid, Basingstoke, UK), and 10 μg of cholesterol (Sigma -Aldrich, Munich, Germany) per mL. The experiment was carried out in 96 -well flat -bottomed microtiter plates (Sarstedt, Nümbrecht, Germany) in the final volume of 100 μL per wel l. 25 μL of this suspension of nematodes (25 –35 nematodes) were transferred to the wells of a 96 -well microtiter plate, where 50 μL of the medium was previously added. Next, 25 μL of a solvent control (DMSO) or 25 μL of a concentrated solution was added to the test wells. The final concentrations of the compounds were 50, 25, 10, and 5 µg/mL. Subsequently, the plates were incubated at 25 °C for 2 days. The fraction of dead worms was determined after 48 h by counting the number of dead worms and the total number of worms in each well, using a stereomicroscope (SMZ143-N2GG, Motic, Germany).
As a negative control experiment, nematodes were exposed to the medium containing 1% […]
Ergosterol biosynthesis assay: Ergosterol levels were measured according to the published procedure with some minor modifications. 10 Briefly, a sing le C. albicans colony from an overnight Sabouraud dextrose agar plate was used to inoculate 50 ml of Sabouraud dextrose broth containing 0.5 MIC concentrated compounds. Incubation was performed for 18 h at 37 °C on the rotary shaker at 180 rpm. Cells were harvested by centrifugation at 3000 rpm for 5 min and washed once with sterile distilled water. The net wet weight of the cell pellet was determined. Three milliliters of 25% alcoholic potassium hydroxide solution (25 g of KOH and 35 ml of sterile distill ed water, brought to 100 ml with 100% ethanol), was added to each pellet and vortex mixed for 1 min and incubated in an 85 °C water bath for 1 h. Tubes were cooled to room temperature and extraction of sterols was done with the addition of a mixture of 1 ml of sterile distilled water and 3 ml of n-heptane followed by vigorous vortex mixing for 3 min. The heptane layer was used for spectrophotometrically measuring ergosterol concentrations by scanning absorbance between 240 nm and 300 nm using Ultrospec 3300pro 573 (Amer sham Biosciences, Amersham, UK).

[3] = S. aureus ATCC25923, 24 h at 37 °C, highest tested concentration 250 µg/mL
[4] = E. coli NCTC9001, 24 h at 37 °C, highest tested concentration 250 µg/mL
[5] = P. aeruginosa ATCC27853, 24 h at 37 °C, highest tested concentration 250 µg/mL
[6] = S. aureus MRSA, 24 h at 37 °C, highest tested concentration 250 µg/mL
[7] = B. subtilis ATCC6633, 24 h at 37 °C, highest tested concentration 250 µg/mL
[8] = C. albicans ATCC10231, 24 h at 37 °C, highest tested concentration 250 µg/mL

Row | SMILES | MIC (S. aureus ATCC25923; [3]) [µg/mL] | MIC (E. coli NCTC9001; [4]) [µg/mL] | MIC (P. aeruginosa ATCC27853; [5]) [µg/mL] | MIC (S. aureus MRSA; [6]) [µg/mL] | MIC (B. subtilis ATCC6633; [7]) [µg/mL] | MIC (C. albicans ATCC10231; [8]) [µg/mL] | improvement of antibacterial activity compared to sorrentanone (7) [1] | MIC (S. aureus ATCC25923; ATCC25923, 24 h) [µg/mL] | MIC (E. coli NCTC9001; NCTC9001, 24 h) [µg/mL] | MIC (P. aeruginosa ATCC27853; ATCC27853, 24 h) [µg/mL] | MIC (S. aureus MRSA; MRSA, 24 h) [µg/mL] | MIC (B. subtilis ATCC6633; ATCC6633, 24 h) [µg/mL] | MIC (C. albicans ATCC10231; ATCC10231, 24 h) [µg/mL] | selectivity index (SI) ([2]; cytotoxicity versus antibiotic activity, calculation not described) | cell survival ([2]; MRC-5 cells, 10 µg/mL, 48 h) | in vivo toxicity (in words) (Caenorhabditis elegans)
1 | CC1=C(O)C(=O)C(C)=C(C(=O)OCC(C)C)C1=O [compound 32] | 31.2 (≈ 124 µM) | > 250 | > 250 | 31.2 (≈ 124 µM) | 31.2 (≈ 124 µM) | > 250 |  |  |  |  |  |  |  |  |  | 
2 | CCCCOC(=O)C1=C(C)C(=O)C(O)=C(C)C1=O [compound 31] | 31.2 (≈ 124 µM) | > 250 | > 250 | 31.2 (≈ 124 µM) | 15.6 (≈ 61.8 µM) | > 250 |  |  |  |  |  |  |  |  |  | 
3 | CN[C@H](CC(C)C)C(=O)N[C@H]1C(=O)N[C@@H](CC(N)=O)C(=O)N[C@H]2C(=O)N[C@H]3C(=O)N[C@H](C(=O)N[C@H](C(=O)O)c4cc(O)cc(O)c4-c4cc3ccc4O)[C@H](O)c3ccc(c(Cl)c3)Oc3cc2cc(c3O[C@@H]2O[C@H](CO)[C@@H](O)[C@H](O)[C@H]2O[C@H]2C[C@](C)(N)[C@H](O)[C@H](C)O2)Oc2ccc(cc2Cl)[C@H]1O [vancomycin, reference compound] |  |  |  |  |  |  |  | 1 (≈ 0.69 µM) | 125 (≈ 86.3 µM) | 125 (≈ 86.3 µM) | 0.5 (≈ 0.345 µM) | 0.4 (≈ 0.276 µM) | 50 (≈ 34.5 µM) | 200 |  | 
4 | CCCCCOC(=O)C1=C(C)C(=O)C(O)=C(C)C1=O [compound 33] | 15.6 (≈ 58.6 µM) | > 250 | > 250 | 15.6 (≈ 58.6 µM) | 15.6 (≈ 58.6 µM) | > 250 | two- to four-fold improved activity |  |  |  |  |  |  |  |  | comparatively lower in vivo toxicity
5 | CCOC(=O)C1=C(C)C(=O)C(O)=C(C)C1=O [compound 29] | 62.5 (≈ 279 µM) | > 250 | > 250 | 62.5 (≈ 279 µM) | 15.6 (≈ 69.6 µM) | > 250 |  |  |  |  |  |  |  |  |  | 
6 | COC(=O)C1=C(C)C(=O)C(O)=C(C)C1=O [compound 28] | 62.5 (≈ 297 µM) | > 250 | > 250 | 31.2 (≈ 148 µM) | 15.6 (≈ 74.2 µM) | > 250 |  |  |  |  |  |  |  |  |  | 
7 | CCCOC(=O)C1=C(C)C(=O)C(O)=C(C)C1=O [compound 30] | 62.5 (≈ 262 µM) | > 250 | > 250 | 62.5 (≈ 262 µM) | 15.6 (≈ 65.5 µM) | > 250 |  |  |  |  |  |  |  |  |  | 

Second part, led by results:

Row | MIC (S. aureus ATCC25923; [3]) [µg/mL] | MIC (E. coli NCTC9001; [4]) [µg/mL] | MIC (P. aeruginosa ATCC27853; [5]) [µg/mL] | MIC (S. aureus MRSA; [6]) [µg/mL] | MIC (B. subtilis ATCC6633; [7]) [µg/mL] | MIC (C. albicans ATCC10231; [8]) [µg/mL] | SMILES | improvement of antibacterial activity compared to sorrentanone (7) [1] | MIC (S. aureus ATCC25923; ATCC25923, 24 h) [µg/mL] | MIC (E. coli NCTC9001; NCTC9001, 24 h) [µg/mL] | MIC (P. aeruginosa ATCC27853; ATCC27853, 24 h) [µg/mL] | MIC (S. aureus MRSA; MRSA, 24 h) [µg/mL] | MIC (B. subtilis ATCC6633; ATCC6633, 24 h) [µg/mL] | MIC (C. albicans ATCC10231; ATCC10231, 24 h) [µg/mL] | selectivity index (SI) ([2]; cytotoxicity versus antibiotic activity, calculation not described) | cell survival ([2]; MRC-5 cells, 10 µg/mL, 48 h) | in vivo toxicity (in words) (Caenorhabditis elegans)
8 | 15.6 (≈ 58.6 µM) | > 250 | > 250 | 15.6 (≈ 58.6 µM) | 15.6 (≈ 58.6 µM) | > 250 | CC1=C(O)C(=O)C(C)=C(C(=O)OCCC(C)C)C1=O [compound 34] | two- to four-fold improved activity |  |  |  |  |  |  |  |  | 
9 | 62.5 (≈ 252 µM) | > 250 | > 250 | 31.2 (≈ 126 µM) | 31.2 (≈ 126 µM) | > 250 | C#CCCOC(=O)C1=C(C)C(=O)C(O)=C(C)C1=O [compound 38] |  |  |  |  |  |  |  |  |  | 
10 | 31.2 (≈ 111 µM) | > 250 | > 250 | 31.2 (≈ 111 µM) | 7.81 (≈ 27.9 µM) | 62.5 (≈ 223 µM) | CCCCCCOC(=O)C1=C(C)C(=O)C(O)=C(C)C1=O [compound 35] |  |  |  |  |  |  |  |  |  | 
11 | 31.2 (≈ 119 µM) | > 250 | > 250 | 62.5 (≈ 238 µM) | 31.2 (≈ 119 µM) | 62.5 (≈ 238 µM) | C#CCCCOC(=O)C1=C(C)C(=O)C(O)=C(C)C1=O [compound 40] |  |  |  |  |  |  |  |  | over 60% | 
12 | 62.5 (≈ 250 µM) | > 250 | > 250 | 31.2 (≈ 125 µM) | 31.2 (≈ 125 µM) | > 250 | C=CCCOC(=O)C1=C(C)C(=O)C(O)=C(C)C1=O [compound 37] |  |  |  |  |  |  |  |  |  | 

From PMC12227560, “Total synthesis of a sorrentanone ester library and evaluation of its antimicrobial potential” (Scientific Reports, 2025)
